Entries after “also recorded” stand apart in the source; their conditions may differ. Where two headings read alike, the source gives them in different places.
Tests used:
[1] = PK and maximally tolerated dose, daily oral administration, mouse; type: in vivo
Description: (§1) The allometric scaling is based on toxicity, and the toxicity is that which establishes the Maximally Tolerated Dose (MTD) in animal studies. In mice, one toxicity study established the MTD to be 35 mg/kg. […] It was not expected that, as shown herein, doses markedly lower than 180 mg daily in humans would have anticancer effects.
[…]. Possible explanations for this finding include hysteresis loops (7), and flip-flop pharmacokinetics (7).
(§2) Allometric scaling is a means by which PK results from animal studies can be used to predict human drug exposure for a range of drug doses. In this case, allometric scaling was performed using representative values from the PK studies with daily oral PCLX-001 administration for 14 or 28 days in non-human species. These inputs were analyzed with www.truedose.app to predict the Maximally Tolerated Dose we would see in this phase one clinical trial (FIG. 2). […]

[2] = Allometric scaling from animal maximally tolerated doses to predict human daily oral MTD (www.truedose.app)
Description: as §1, with “mg/kg. […].” for “mg/kg.”
as §2

[3] = test system: implanted human tumors; test: Anticancer efficacy in mice bearing implanted human tumors; type: in vivo, mouse; conditions: in any given experiment
[4] = Oral bioavailability in animal models; type: in vivo
[5] = test system: DLBCL / soft tissue sarcoma in patients; test: Phase I trial efficacy assessment (CT/PET imaging, Lugano criteria, RECIST); type: in vivo, human
Description: Patients 1 and 2 had baseline cross sectional and PET imaging, and patient 3 had baseline cross sectional imaging. Protocol defined imaging was CT every 2 cycles and PET every 6 cycles or as clinically indicated. Evaluation of response was by the Lugano classification criteria for the evaluation of non-Hodgkin lymphoma, and […] for the evaluation of soft tumors. Computed tomography was performed on patient 2 on two occasions, immediately prior to treatment (pre-treatment scan obtained Oct. 29, 2021) and after two 28-day cycles of oral PCLX-001 at a daily dose of 20 mg by mouth (post-treatment scan obtained Dec. 30, 2021). Both scans were done on the same scanner using the same techniques including the use of intravenous contrast dye. The three pairs of pre and post treatment scans are of the same cross section of the patient, in order to identify a clinical trial target lesion of a liver metastasis in the subcapsular region of segment five of the liver. […] FIG. 2A-4F.

[6] = test system: Colon cultured human cancer cells; conditions: mean among sensitive cell lines, read-out: IC50 mean +/− SD, cited from earlier work
[7] = test system: Leukemia cultured human cancer cells; conditions: mean among sensitive cell lines, cited from earlier work
[8] = test system: Lung cultured human cancer cells; conditions: mean among sensitive cell lines, cited from earlier work; for IC50: read-out: IC50 mean +/− SD
[9] = test system: Lymphoma cultured human cancer cells; conditions: mean among sensitive cell lines, cited from earlier work; for IC50: read-out: IC50 mean +/− SD
[10] = test system: Melanoma cultured human cancer cells; conditions: mean among sensitive cell lines, cited from earlier work; for IC50: read-out: IC50 mean +/− SD
[11] = test system: Myeloma cultured human cancer cells; conditions: first panel, mean among sensitive cell lines, read-out: EC50 mean +/− SD; cited from earlier work
[12] = test system: Pancreas cultured human cancer cells; conditions: mean among sensitive cell lines, cited from earlier work
[13] = test system: Prostate cultured human cancer cells; conditions: second panel, mean among sensitive cell lines, read-out: IC50 mean +/− SD; cited from earlier work
[14] = test system: Sarcoma cultured human cancer cells; conditions: second panel, mean among sensitive cell lines, read-out: IC50 mean +/− SD; cited from earlier work
[15] = test system: Stomach cultured human cancer cells; conditions: second panel, mean among sensitive cell lines, read-out: IC50 mean +/− SD; cited from earlier work
[16] = test system: cancer cells (hematologic, lymphoma and solid cancer cell lines); conditions: tissue culture; hematological and solid cancer cell lines; cited from earlier work
[17] = GLP non-clinical safety testing; cited from earlier work
[18] = test system: Bruton tyrosine kinase (BTK); conditions: models of human lymphoma; cited from earlier work
[19] = in vivo; conditions: rat, plasma, po
[20] = PK and maximally tolerated dose, daily oral administration, rat
[21] = first panel, read-out: EC50 mean +/− SD
[22] = second panel, read-out: IC50 mean +/− SD

**Q.** Which “Maximally Tolerated Dose daily oral administration” value [1] does the source give for Cc1c(NS(=O)(=O)c2c(Cl)cc(-c3ccnc(N4CCNCC4)c3)cc2Cl)c(CC(C)C)nn1C [PCLX-001, 2,6-dichloro-N-(3-isobutyl-1,5-dimethyl-1H-pyrazol-4-yl)-4-(2-(piperazin-1-yl)pyridin-4-yl)benzene sulfonamide] here?
**A.** 35 mg/kg

**Q.** And the Cmax ([1]; in vivo, po)?
**A.** 46000 ng/mL

**Q.** And the half-life ([1]; in vivo, po)?
**A.** 1.6 h

**Q.** And the “Allometric prediction of human MTD” value ([2]; scaled from dog MTD)?
**A.** 137 mg mg/70 kg

**Q.** What about the “Allometric prediction of human MTD” value ([2]; scaled from mouse MTD) of the same compound?
**A.** 180 mg mg/70 kg

**Q.** And the “Allometric prediction of human MTD” value ([2]; scaled from rat MTD)?
**A.** 1300 mg mg/70 kg

**Q.** What about the “effective dose relative to the dose that produced mouse toxicity” value [3] of the same compound?
**A.** greater than 50%

**Q.** What about the oral bioavailability [4] of the same compound?
**A.** complete oral bioavailability

**Q.** What about the “disease response (Lugano criteria, computed tomography day 28)” value ([5]; Patient 1, refractory relapsed DLBCL, 20 mg oral daily) of the same compound?
**A.** disease progression; also recorded: progression of the volume of lymphoma

**Q.** What about the “response in lymph nodes” value ([5]; Patient 2, DLBCL, 20 mg oral daily) of the same compound?
**A.** progressive disease in lymph nodes

**Q.** What about the “response of hepatic metastatic disease on CT” value ([5]; Patient 2, DLBCL, 20 mg oral daily, about two months) of the same compound?
**A.** marked reduction of volume of hepatic metastatic disease; also recorded: marked tumor response in hepatic metastases; also recorded: marked tumor regression; also recorded: regression of a malignant lesion in the liver

**Q.** What about the response assessment scans ([5]; Patient 3, leiomyosarcoma, after two 28 day cycles) of the same compound?
**A.** progressive disease

**Q.** And the IC50 ([6]; second panel)?
**A.** 158 ± 27.4 nM

**Q.** And the IC50 ([6]; third panel)?
**A.** 210 ± 85.4 nM

**Q.** What about the EC50 [7, 21] of the same compound?
**A.** 97.9 ± 81.3 nM

**Q.** What about the IC50 [7, 22] of the same compound?
**A.** 189 ± 87.8 nM

**Q.** What about the EC50 [8, 21] of the same compound?
**A.** 151 ± 88.2 nM

**Q.** What about the IC50 ([8]; second panel) of the same compound?
**A.** 184 ± 82.8 nM

**Q.** What about the IC50 ([8]; third panel) of the same compound?
**A.** 154 ± 111 nM

**Q.** What about the EC50 [9, 21] of the same compound?
**A.** 80.9 nM

**Q.** And the IC50 ([9]; second panel)?
**A.** 138 ± 55.8 nM

**Q.** What about the IC50 ([9]; third panel) of the same compound?
**A.** 230 ± 107 nM

**Q.** And the EC50 [10, 21]?
**A.** 134 ± 53.9 nM

**Q.** And the IC50 ([10]; second panel)?
**A.** 208 ± 99.5 nM

**Q.** And the IC50 ([10]; third panel)?
**A.** 157 ± 192 nM

**Q.** What about the EC50 [11] of the same compound?
**A.** 144 ± 44.7 nM

**Q.** And the EC50 [12, 21]?
**A.** 109 ± 90 nM

**Q.** And the IC50 [12, 22]?
**A.** 77.7 ± 13.7 nM

**Q.** What about the IC50 [13] of the same compound?
**A.** 85.4 ± 59.2 nM

**Q.** And the IC50 [14]?
**A.** 198 ± 134 nM

**Q.** What about the IC50 [15] of the same compound?
**A.** 120 ± 48.2 nM

**Q.** And the “inhibition of cancer cell growth in vitro” value [16]?
**A.** inhibition of cell growth; also recorded: markedly inhibited

**Q.** And the dose limiting toxicity [17]?
**A.** diarrhea was dose limiting

**Q.** What about the “BTK modification and downstream signaling” value [18] of the same compound?
**A.** profoundly inhibited

**Q.** What about the Cmax [19] of the same compound?
**A.** 3110 ng/mL

**Q.** And the half-life [19]?
**A.** 1 h

**Q.** What about the “Maximally Tolerated Dose daily oral administration” value [20] of the same compound?
**A.** 125 mg/kg
